Test results: patent publication US20200237852A1, “Small Molecule Enhancers of Paneth Cell Function and Differentiation” (Massachusetts Institute of Technology, priority 2019, published 2020)

Experiments:
Assay type in all cases: cell-based, C57BL/6 mice
[1] = system: ENR+CD and ENR organoid populations; experiment: Population RNA-seq of organoids; conditions: 3 days of treatment, all media conditions controlled, FDR<0.01
Source text: To further assess the potential interaction of Wnt agonist CHIR99021 (C) and Notch inhibitor DAPT (D) with XPO1 inhibitors, we carried out an experiment where we assessed bulk organoid population transcriptomes (with RNA-seq) from multiple variations on growth media, XPO1 inhibitor, and duration of treatment (FIG. 12A). To characterize the resulting cell phenotypes, we used aggregate scores of geneset enrichment (based on module scoring as implemented in^7) from the in vivo Paneth and related enteroendocrine cell populations (genesets taken from^6). We see that again for both ENR+CD treated (FIG. 12B) and ENR treated (FIG. 12C) organoid populations, XPO1 inhibition drives enrichment in Paneth cell defining genes, principally at 3 days of treatment. […]
Population RNA-seq was performed using a derivative of the Smart-Seq2 protocol for single cells^1,2. […] Libraries were pooled post-Nextera and cleaned using Agencourt AMPure SPRI beads with successive 0.7× and 0.8× ratio SPRIs and sequenced with an Illumina 75 Cycle NextSeq500/550v2 kit (Illumina FC-404-2005) with loading density at 2.2 pM, with paired end 35 cycle read structure. Samples were sequenced at an average read depth of 8.44 million reads per sample and a total of 96 samples. […]

[2] = system: ENR+CD organoids; experiment: Flow cytometry analysis, 3D culture, XPO1 inhibitors; conditions: 6-day ENR+CD organoids
Experimental: ISC-enriched organoids cultured in 3D Matrigel with ENRCV media were passaged to 24-well plate in 3D Matrigel with ENRCV. At day zero, media were replaced to ENRCD with or without indicated compounds, and media were replaced every other day. At day six, cells were washed with basal media, and then harvested from Matrigel by mechanical disruption in TrypLE Express (ThermoFisher, 12605010) to remove Matrigel and dissociate organoids to single cells. After vigorous pipetting and incubation at 37° C. for 20 min, dissociated organoids were strained through a 35 μm cell strainer into a tube (Falcon, 352235). The cell filtrate was centrifuged again at 300×g for 3 min at 4° C. to pellet the cells. Cell pellets were resuspended in FACS buffer (2% FBS in PBS), and then transferred to an ultra low-bind 96-well plate (Corning, 7007). Cells were stained with Zombie-violet viability dye (BioLegend, 423107) at 100× for viability staining and/or antibody staining solution. FITC-conjugated antibody for lysozyme (Dako, […]) and APC-conjugated antibody for CD24 (BioLegend, 138505) were used at 100× dilution. Flow cytometry was performed using an LSR Fortessa (BD; Koch Institute Flow Cytometry Core at MIT). The data were analyzed using FlowJo v10 software.

[3] = system: organoids differentiated under ENR+CV, ENR+CD, or ENR; experiment: Western blotting for LYZ in organoids; conditions: six days in ENR+CV
Source text: ISC-enriched organoids cultured in 3D Matrigel with ENRCV media were passaged to 24-well plate in 3D Matrigel with ENRCV. At day zero, media were replaced to ENR or ENRCD with or without indicated compounds, and media were replaced every other day. At day six, cells were harvested from Matrigel by mechanical disruption and suspended in basal media. Cell pellets were lysed with Pierce® IP lysis buffer (ThermoFisher, 87787) containing Halt™ Protease Inhibitor Cocktail, EDTA-Free (ThermoFisher, 87785) after 3-minute centrifuge at 300×g at 4° C. Cell extracts were resolved by NuPAGE® SDS-PAGE Gel system (ThermoFisher) and electroblotted onto polyvinylidene difluoride membranes using Criterion™ Blotter (Biorad). The membranes were blocked with 2% Blotting-Grade Blocker (Biorad, 1706404) in TBS-T (50 mM Tris-HCl, 150 mM NaCl, and 0.1% Tween 20, pH 8.0) and then probed with appropriate antibodies. Detection was performed using ECL Select™ Western Blotting Detection Reagent (Amersham, 45-000-999) and ImageQuant LAS4000 (GE Healthcare).

[4] = system: ISC-enriched organoids in ENR+CD; experiment: 384-well secondary screen in ENR+CD, ATP assay; conditions: 100 nM
Source text: We again assessed treatment effect size with replicate SSMD (using a difference between well replicates and median assay value for all same-plate control wells—see Materials and Methods, High-throughput screening: 384-well secondary screen format and early vs. full treatment analysis) and hits were considered statistically validated by an SSMD greater than the false-positive-derived cutoffs (βα1=0.89 for 8 replicates with alpha=0.05; see Materials and Methods, High-throughput screening: 384-well secondary screen format and early vs. full treatment analysis) for both LYZ.NS and LYZ.S assays (FIG. 7A). […]
For 384-well plate high-throughput screening, ISC-enriched organoids were passaged and split to single cells with TyrpLE (Thermo Fisher Scientific) and cultured for 2-3 days in ENR+CVY prior to transfer to a “2.5-D” 384-well plate culture system. […] On the final wash, pellet was resuspended in basal culture medium, the number of organoids counted, and the cell pellet was resuspended in ENR+CD medium at ˜7 clusters/μL. […] On day six, lysozyme secretion and cell viability were assessed using Lysozyme Assay Kit (EnzChek) and CellTiter-Glo 3D Cell Viability Assay (Promega), respectively, according to the manufacturers' protocols. […]

[5] = system: conventional organoid (ENR); experiment: 384-well screen in conventional organoid (ENR), secreted LYZ (LYZ.NS, LYZ.S); conditions: 6-day ENR+treatment, single treatment-dose
[6] = system: ISC-enriched organoids in ENR+CD; experiment: 384-well secondary screen in ENR+CD incl. early vs. full treatment, secreted LYZ (LYZ.NS, LYZ.S)
Source text: We again assessed treatment effect size with replicate SSMD (using a difference between well replicates and median assay value for all same-plate control wells—see Materials and Methods, High-throughput screening: 384-well secondary screen format and early vs. full treatment analysis) and hits were considered statistically validated by an SSMD greater than the false-positive-derived cutoffs (βα1=0.89 for 8 replicates with alpha=0.05; see Materials and Methods, High-throughput screening: 384-well secondary screen format and early vs. full treatment analysis) for both LYZ.NS and LYZ.S assays (FIG. 7A). Per this new cutoff, 10 dose-treatment combinations corresponding to 7 small molecules were chosen as hits, with every passing dose-treatment having a greater than 0 ATP effect size.
For 384-well plate high-throughput screening, ISC-enriched organoids were passaged and split to single cells with TyrpLE (Thermo Fisher Scientific) and cultured for 2-3 days in ENR+CVY prior to transfer to a “2.5-D” 384-well plate culture system. To prepare for “2.5D” plating, cell-laden Matrigel and media were homogenized via mechanical disruption and centrifuged at 300 g for 3 min at 4° C. Supernatant was removed and the pellet washed and spun in basal culture medium repeatedly until the cloudy Matrigel above the cell pellet was gone. On the final wash, pellet was resuspended in basal culture medium, the number of organoids counted, and the cell pellet was resuspended in ENR+CD medium at ˜7 clusters/μL. 384-well plates were first filled with 10 μL of 70% Matrigel (30% basal media) coating in each well using a Tecan Evo 150 Liquid Handling Deck, and allowed to gel at 37° C. for 5 minutes. Then 30 μL of cell-laden media was plated at the center of each well of 384-well plates with the liquid handler, and the plates were spun down at 50 g for 1 minute to embed organoids on the Matrigel surface. Compound libraries were pinned into prepped cell plates using 50 nL pins into 30 μL media/well. Cells were cultured at 37° C. with 5% CO2 for six days in ENR+CD medium supplemented with the tested compounds with a media change at three days. On day six, lysozyme secretion and cell viability were assessed using Lysozyme Assay Kit (EnzChek) and CellTiter-Glo 3D Cell Viability Assay (Promega), respectively, according to the manufacturers' protocols. Briefly, screen plates were washed 3× with FluoroBrite basal media (2 mM GlutaMAX and 10 mM HEPES in FluoroBrite DMEM (Thermo Fisher Scientific)) using a BioTek 406 plate washer with 10 min incubations followed by a 1 min centrifugation at 200 g to settle media between washes. After removal of the third wash, 30 μL of non-stimulated FluoroBrite basal media was added to each screen well using a Tecan Evo 150 Liquid Handling Deck from a non-stimulated treatment master plate, and plates were incubated for 30 min at 37° C. After 30 minutes, the top 15 μL of media from each well of the screen plate was transferred to a non-stimulated LYZ assay plate containing 15 μL of 20× DQ LYZ assay working solution using a Tecan Evo 150 Liquid Handling Deck. The non-stimulated LYZ assay plate was covered, shaken for 10 min, incubated for 50 min at 37° C., then fluorescence measured (shake 10 s; […]/518 nm) using a Tecan M1000 Plate Reader. After the media transfer to the non-stimulated LYZ assay plate, the remaining media was removed from the screen plate and 30 μL of Stimulated FluoroBrite basal media (supplemented with 10 μM CCh) was added to each screen well using a Tecan Evo 150 Liquid Handling Deck from a stimulated treatment master plate, and plates were incubated for 30 min at 37° C. After 30 minutes, the top 15 μL of media from each well of the screen plate was transferred to a stimulated LYZ assay plate containing 15 μL of 20× DQ LYZ assay working solution using a Tecan Evo 150 Liquid Handling Deck. […]

## NC(=O)/C(=C/n1cnc(-c2cc(C(F)(F)F)cc(C(F)(F)F)c2)n1)c1cncnc1 [KPT-8602]
[1]
  identity of the majority of significantly up-regulated genes relative to no treatment (DESeq2): known Paneth cell lineage-defining genes
[2]
  Paneth cell representation by flow cytometry: statistically significant increases in Paneth cell representation
[3]
  LYZ abundance on a per-mass protein normalized basis (western blot): appreciably increase LYZ abundance

## Cc1[nH]c(/C=C2\C(=O)Nc3ccc(S(=O)(=O)Cc4c(Cl)cccc4Cl)cc32)c(C)c1C(=O)N1CCC[C@@H]1CN1CCCC1 [PHA-665752]
[4]
  ATP alone, early versus full treatment: no difference in ATP alone
[5]
  LYZ.NS reading versus ENR+DMSO: significantly lower LYZ.NS
[6]; 6-day ENR+CD+treatment vs ENR+CD+DMSO, cutoff 0.89, 8 replicates
  validation in secondary screen (SSMD above cutoff for both LYZ.NS and LYZ.S): multiple validated doses
[6]; ENR+CD, 100 nM
  LYZ.NS/ATP, early versus full treatment: significant difference (adj. p<0.05) between early and full
  LYZ.S/ATP, early versus full treatment: suggestive trend
[6]; ENR+CD, maximal validated dose
  improvement in function, early (first 3 days) versus full 6-day treatment, LYZ.NS and LYZ.S assays: significantly (adj. p<0.05) lower improvement in function with early treatment versus full
